# Active and inactive are the calls of the source.
# Key:
# T-cell = test: loss of vesicle association with mouse CD8+ T cells – mouse 2C CD8+ T cells, flow cytometry, dose response (AID 485284); type: functional
# Genome polyprotein = Genome polyprotein (Hepatitis C virus, UniProt Q2Q167); test: disruption of hepatitis C core self-association – biochemical, TR-FRET, dose response (AID 2159); design: species or system Hepacivirus hominis;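 further: blocks dimerization of HCV core protein measured by TR-FRET between tagged core106 pairs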
# SUMO-activating enzyme [1] = biological target: T1, SUMO-activating enzyme (Homo sapiens, UniProt Q9UBT2); test: blockers of UBC9-mediated SUMO conjugation – biochemical, AlphaScreen, SUMOylation inhibitor project, confirmation (AID 2018); type: functional
# [2] = biological target: T2, Voltage-gated N-type calcium channel alpha-1B subunit/Amyloid beta A4 precursor protein-binding family A member 1 (Homo sapiens, UniProt Q00975+Q02410); type: protein assay
# SUMO-activating enzyme [3] = biological target: T1, SUMO-activating enzyme; test: blockers of SAE1/SAE2–UBC9 SUMO transfer – biochemical, HTRF, uHTS, primary screen (AID 2006); type: protein-complex assay
# [4] = biological target: T2, Voltage-gated N-type calcium channel alpha-1B subunit/Amyloid beta A4 precursor protein-binding family A member 1; type: protein assay; remark: listed apart in the source
# Paired box protein Pax-8 = Paired box protein Pax-8 (Homo sapiens, UniProt Q06710); test: PAX8 transcriptional activity inhibition in RMG-I – RMG-I cells, luciferase, cherry-pick, dose response (AID 687027); type: functional, cell-based;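 further: luciferase reporter driven by Pax8 target thyroperoxidase promoter measured by SteadyGlo luminescence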
# [5] = biological target: T3, G-protein coupled receptor 35 (Homo sapiens, UniProt Q9HC97); test: inhibition of zaprinast-stimulated GPR35 beta-arrestin translocation – imaging, U2OS, beta-arrestin-GFP, zaprinast agonist, primary screen (AID 2058); type: functional;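 further: antagonist potency meaning inhibition of agonist-induced arrestin redistribution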
# [6] = biological target: E3 ubiquitin-protein ligase Mdm2/Protein Mdm4 (Homo sapiens, UniProt O15151+Q00987); test: disruption of Mdm2/MdmX protein binding – luminescence detection, dose response (AID 504593); type: functional
# [7] = biological target: T4, Microphthalmia-associated transcription factor (Homo sapiens, UniProt O75030); test: reducers of TRPM1 reporter luminescence, concentration series – cell-based, SK-MEL-5, cherry-picked, set 3, MITF inhibitor project, dose response (AID 493073); type: functional;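 further: SK-MEL-5 melanoma cells with luciferase driven by the MITF target TRPM1 promoter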
# T4 sequence (O75030 whole entry): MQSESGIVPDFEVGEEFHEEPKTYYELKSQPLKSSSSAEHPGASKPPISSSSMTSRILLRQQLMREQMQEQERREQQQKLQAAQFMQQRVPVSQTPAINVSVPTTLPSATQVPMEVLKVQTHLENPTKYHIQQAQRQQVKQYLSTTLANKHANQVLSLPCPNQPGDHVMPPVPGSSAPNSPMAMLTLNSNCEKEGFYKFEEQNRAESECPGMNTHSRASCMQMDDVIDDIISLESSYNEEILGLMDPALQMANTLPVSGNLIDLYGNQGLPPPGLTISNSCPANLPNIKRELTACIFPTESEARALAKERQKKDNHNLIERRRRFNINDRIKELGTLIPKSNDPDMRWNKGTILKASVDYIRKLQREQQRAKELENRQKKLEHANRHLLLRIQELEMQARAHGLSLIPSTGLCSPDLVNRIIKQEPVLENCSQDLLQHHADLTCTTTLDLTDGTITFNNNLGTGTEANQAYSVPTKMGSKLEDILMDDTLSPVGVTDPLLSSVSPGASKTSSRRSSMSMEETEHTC
# A-375 = test: proliferation inhibition in MITF-low A375 cells – cell-based, cherry-pick samples, set 2, counter-screen for MITF modulator project, dose response (AID 540335); type: functional; conditions: Homo sapiens
# Prothrombin = Prothrombin (Homo sapiens, UniProt P00734); test: Thrombin 1536 HTS Dose Response Confirmation. [Related pubchem assays: 1046 (Thrombin 1536 HTS; hits were confirmed in this assay)]; type: functional
# Coagulation factor XII = Coagulation factor XII (Homo sapiens, UniProt P00748); type: functional;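 further: activated factor XIIa alpha cleaving a fluorogenic AMC peptide substrate; inhibitor potency from loss of enzyme activity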
# Troponin, cardiac muscle = Troponin, cardiac muscle (Homo sapiens, UniProt P19429+P45379+P63316); test: Fluorescence-based biochemical high throughput dose response assay for activators of the calcium sensitivity of cardiac Regulated Thin Filaments (RTF). [Related pubchem assays (depositor defined):AID493008, AID493018, AID504382, AID504383]; type: protein-complex assay
# [8] = biological target: Alkaline phosphatase, placental type (Homo sapiens, UniProt P05187); test: human placental alkaline phosphatase inhibition – biochemical, luminescence, confirmation (AID 1512); type: functional
# [9] = biological target: T5, Alkaline phosphatase, tissue-nonspecific isozyme (Homo sapiens, UniProt P05186); test: potency against alkaline phosphatase TNAP – biochemical, luminescent, dose response, SAR follow-up (AID 1056)
# T5 sequence (P05186 whole entry): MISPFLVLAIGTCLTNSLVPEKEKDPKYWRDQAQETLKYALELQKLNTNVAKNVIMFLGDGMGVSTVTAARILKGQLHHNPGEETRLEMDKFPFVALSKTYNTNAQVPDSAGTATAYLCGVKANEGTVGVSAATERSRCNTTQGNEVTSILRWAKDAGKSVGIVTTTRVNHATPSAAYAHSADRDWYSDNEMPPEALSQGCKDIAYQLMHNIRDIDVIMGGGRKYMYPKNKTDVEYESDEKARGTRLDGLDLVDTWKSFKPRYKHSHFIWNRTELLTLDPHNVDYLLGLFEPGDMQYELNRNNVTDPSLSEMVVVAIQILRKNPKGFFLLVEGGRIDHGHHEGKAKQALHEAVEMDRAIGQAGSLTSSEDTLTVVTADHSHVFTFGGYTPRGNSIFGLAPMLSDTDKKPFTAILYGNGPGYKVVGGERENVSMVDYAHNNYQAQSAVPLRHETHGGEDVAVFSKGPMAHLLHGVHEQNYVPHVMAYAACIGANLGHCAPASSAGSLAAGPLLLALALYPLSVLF
# Cannabinoid receptor 2 [10] = biological target: T6, Cannabinoid receptor 2 (Homo sapiens, UniProt P34972); test: SAR analysis of antagonists of the Cannabinoid Receptor 2 using an Image-Based Assay - Set 2. [Related pubchem assays (depositor defined):AID1961, AID1965]; type: functional
# [11] = biological target: G-protein coupled receptor 55 (Homo sapiens, UniProt Q9Y2T6); test: SAR analysis of selective Agonists of GPR55 using an Image-Based Assay - Set 2. [Related pubchem assays (depositor defined):AID1961, AID1965]; type: functional
# Cannabinoid receptor 2 [12] = biological target: T6, Cannabinoid receptor 2; test: SAR analysis of agonists of the Cannabinoid Receptor 2 using an Image-Based Assay - Set 2. [Related pubchem assays (depositor defined):AID1961, AID1965]; type: functional
# [13] = biological target: T3, G-protein coupled receptor 35; test: SAR analysis of Agonists of the GPR35 Receptor using an Image-Based Assay - Set 3. [Related pubchem assays (depositor defined):AID1961, AID1965]; type: functional
# Cannabinoid receptor 1 [14] = biological target: T7, Cannabinoid receptor 1 (Homo sapiens, UniProt P21554); test: SAR analysis of antagonists of the Cannabinoid Receptor 1 using an Image-Based Assay - Set 3. [Related pubchem assays (depositor defined):AID1961, AID1965]; type: functional
# Cannabinoid receptor 1 [15] = biological target: T7, Cannabinoid receptor 1; test: SAR analysis of agonists of the Cannabinoid Receptor 1 using an Image-Based Assay - Set 3. [Related pubchem assays (depositor defined):AID1961, AID1965]; type: functional
# [16] = biological target: T3, G-protein coupled receptor 35; test: SAR analysis of Antagonists of the GPR35 Receptor using an Image-Based Assay - Set 4. [Related pubchem assays (depositor defined):[…]]; type: functional
# Major prion protein = Major prion protein (Homo sapiens, UniProt P04156); type: functional, cell-based
# [17] = biological target: T8, Sphingosine 1-phosphate receptor 4 (Homo sapiens, UniProt O95977); test: Late-stage fluorescence dose response cell-based assay to identify agonists of the Sphingosine 1-Phosphate Receptor 4 (S1P4): purchased compounds EC50. [Related pubchem assays (depositor defined):AID1509, AID1523, AID1563, AID1686, AID1701, AID1801]; type: functional
# T8 sequence (O95977 whole entry): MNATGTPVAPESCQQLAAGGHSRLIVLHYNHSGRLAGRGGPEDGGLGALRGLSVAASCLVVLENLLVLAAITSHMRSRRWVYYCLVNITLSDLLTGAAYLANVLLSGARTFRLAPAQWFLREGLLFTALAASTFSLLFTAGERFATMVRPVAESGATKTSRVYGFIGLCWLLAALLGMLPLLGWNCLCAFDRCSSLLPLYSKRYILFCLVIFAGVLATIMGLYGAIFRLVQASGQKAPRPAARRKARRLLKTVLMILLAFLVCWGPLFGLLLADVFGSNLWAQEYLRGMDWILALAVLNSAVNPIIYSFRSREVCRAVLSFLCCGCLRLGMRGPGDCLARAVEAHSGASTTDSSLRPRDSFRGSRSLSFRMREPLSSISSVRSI
# Mu-type opioid receptor = Mu-type opioid receptor (Homo sapiens, UniProt P35372); test: SAR Analysis of Antagonists of the MOR Receptor using an Image-Based Assay - Set 3. [Related pubchem assays (depositor defined):AID1777, AID1785, AID1786, AID1966, AID2133, AID2136, AID2284, AID2285, AID2420]; type: functional
# [18] = biological target: Delta-type opioid receptor (Homo sapiens, UniProt P41143); test: SAR Analysis of Antagonists of the DOR Receptor using an Image-Based Assay - Set 3. [Related pubchem assays (depositor defined):AID1777, AID1785]; type: functional;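 further: U2OS cells expressing DOR1 and beta-arrestin GFP stimulated with 100 nM SNC80; imaging of GFP-tagged beta-arrestin moving into spots after receptor activation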
# [19] = biological target: T9, Kappa-type opioid receptor (Homo sapiens, UniProt P41145); test: SAR analysis of small molecule antagonists of the kappa opioid receptor via a luminescent beta-arrestin assay - Set 3. [Related pubchem assays (depositor defined):AID1777, AID1778, AID1785, AID1786, AID1966, AID2133, AID2136, AID2285, AID2495]; type: functional
# [20] = biological target: T9, Kappa-type opioid receptor; test: SAR analysis of Antagonists of the Kappa Opioid Receptor (KOR) using an Image-Based Assay - Set 3. [Related pubchem assays (depositor defined):AID1777, AID1785]; type: functional
smiles,measurement,setting,value
COc1ccc(C2=CC(=O)C[C@H](c3ccc4c(c3)OCO4)C2)cn1,EC50,T-cell,19.9 µM (active)
COc1ccc(-c2nc3c(c(SCC(=O)Nc4cccc(O)c4)n2)Cc2c(CO)cnc(C)c2O3)cc1,IC50,Genome polyprotein,> 49.8 µM (not active)
same,IC50,SUMO-activating enzyme [1],9.01 µM (active)
same,IC50,[2],28.1 µM (active)
same,IC50,SUMO-activating enzyme [3],32.8 µM (active)
same,IC50,[4],> 50 µM (inactive)
same,AC50,Paired box protein Pax-8,67.6 µM (active)
CCN(CC)S(=O)(=O)c1ccc(NC(=O)c2cccnc2Cl)c(NC(=O)c2cccnc2Cl)c1,IC50,[5],8.8 µM (active)
same,IC50,[6],4.18 µM (active)
same,AC50,[7],7.02 µM (active)
same,AC50,A-375,23.2 µM (active)
COCCNC(=S)NN=C1CCCCCC1,IC50,Prothrombin,> 50 µM (not active)
same,IC50,Coagulation factor XII,> 50 µM (inactive)
CCOC(=O)N1CCN(C(S)=Nc2ccccc2C)CC1,EC50,"Troponin, cardiac muscle",> 71.4 µM (inactive)
Cc1ccc(-n2nnnc2SCC(=O)c2ccc(O)c(O)c2)cc1,IC50,[8],1.58 µM (active)
same,IC50,[9],8.58 µM (active)
O=C(Nc1cc(S(=O)(=O)N2CCOCC2)ccc1N1CCCC1)c1cc2c(s1)CCCC2,IC50,Cannabinoid receptor 2 [10],> 32 µM (inactive)
same,EC50,[11],1.57 µM (active)
same,EC50,Cannabinoid receptor 2 [12],> 32 µM (inactive)
same,EC50,[13],> 32 µM (inactive)
same,IC50,Cannabinoid receptor 1 [14],> 32 µM (inactive)
same,EC50,Cannabinoid receptor 1 [15],> 32 µM (inactive)
same,IC50,[16],> 32 µM (inactive)
same,IC50,Major prion protein,5.47 µM (active)
same,IC50,cells,> 138 µM (inactive)
Cc1nn(Cc2ccccc2)c(Cl)c1C(=O)OC(C)C(=O)NCc1cccs1 (stereo not given),EC50,[17],> 50 µM (inactive)
O=C(Cn1c(=O)c2cccn2c2cccnc21)NCCCN1CCCCC1,IC50,Mu-type opioid receptor,> 32 µM (inactive)
same,IC50,[18],> 32 µM (inactive)
same,IC50,[19],> 20 µM (inactive)
same,IC50,[20],> 32 µM (inactive)
